Changes are numbered by the printed parent chain. Like-named read-outs stand apart in the source and are kept apart here.

As usually defined, the EC50 is the concentration that produces a half-maximal response.

The target in assay [1] is T1, mTGR5 (Mus musculus, UniProt Q80SS6).
T1 construct: expressed in transfected cells; host or cells: CHO-Pi10 clone 4
T1 sequence (Q80SS6 1-329): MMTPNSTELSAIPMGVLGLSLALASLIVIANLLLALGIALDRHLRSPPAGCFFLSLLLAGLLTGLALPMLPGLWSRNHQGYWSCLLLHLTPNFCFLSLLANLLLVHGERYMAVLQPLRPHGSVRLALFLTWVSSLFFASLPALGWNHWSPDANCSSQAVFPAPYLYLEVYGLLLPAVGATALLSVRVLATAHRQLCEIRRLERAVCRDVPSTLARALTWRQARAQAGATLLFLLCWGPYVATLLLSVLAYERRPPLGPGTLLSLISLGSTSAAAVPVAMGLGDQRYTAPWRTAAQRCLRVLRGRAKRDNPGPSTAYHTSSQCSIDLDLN
Kind of assay: TGR5 activity: cAMP in mTGR5 CHO-Pi10 clone 4 cells. In kind it is cell-based. The note with it: for Emax: 0.5 h, read-out: (mTGR5 CHO) Efficacy.

For assay [2], the target named is T2, human glutathione transferase-tagged FXR-LBD (Homo sapiens, UniProt Q96RI1).
T2 construct: human glutathione transferase-tagged FXR-LBD (Life Technologies, USA); purchased Life Technologies, USA
T2 sequence (Q96RI1 262-486 limits assumed): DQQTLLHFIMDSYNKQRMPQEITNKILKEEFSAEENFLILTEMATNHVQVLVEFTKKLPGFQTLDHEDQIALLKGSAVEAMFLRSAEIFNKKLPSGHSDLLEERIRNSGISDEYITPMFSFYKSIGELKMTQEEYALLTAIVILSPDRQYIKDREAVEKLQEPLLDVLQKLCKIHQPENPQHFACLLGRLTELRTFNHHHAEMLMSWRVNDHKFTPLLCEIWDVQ
Kind of assay: FXR AlphaScreen coactivator recruitment assay (human).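 As to hFXR Efficacy: CDCA at 50 µM taken as 100%.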 In kind it is biochemical. Details: Emax: dose or concentration left out as unconfirmed. The note with it: for EC50: human FXR-LBD, AlphaScreen, read-out: hFXR EC50; for Emax: read-out: hFXR Efficacy. The protocol: (§1) Activation of the FXR receptor was determined using a recruitment coactivator assay, namely AlphaScreen technology. The assays were performed using human glutathione transferase-tagged FXR-LBD (Life Technologies, USA) and mouse glutathione transferase-tagged FXR-LBD (generated in-house). Briefly, assays were conducted in white, low-volume, 384-well OptiPlate using a final volume of 25 μL containing 10 nM glutathione transferase-tagged FXR-LBD protein and 30 nM biotinylated Src-1 peptide. The stimulation was carried out with different BA concentrations for 30 minutes at 25° C. […] Dose-response curves were performed in triplicate and Z′ factor was used to validate the robustness of the assay.
On the technique in general: Alpha assays give light when donor and acceptor beads are brought close together.

Assay [3] deals with T3, TGR5 (Homo sapiens, UniProt Q8TDU6).
T3 sequence (Q8TDU6 1-330): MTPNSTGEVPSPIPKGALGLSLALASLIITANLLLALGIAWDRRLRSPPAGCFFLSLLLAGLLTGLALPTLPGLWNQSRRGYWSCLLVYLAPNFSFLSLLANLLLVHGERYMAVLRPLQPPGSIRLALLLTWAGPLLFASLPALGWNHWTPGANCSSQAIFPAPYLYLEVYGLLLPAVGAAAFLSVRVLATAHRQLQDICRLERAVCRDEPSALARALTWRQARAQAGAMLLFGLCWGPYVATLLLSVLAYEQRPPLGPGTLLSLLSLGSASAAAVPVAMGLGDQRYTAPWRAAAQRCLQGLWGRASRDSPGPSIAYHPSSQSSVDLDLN
Kind of assay: TGR5 activity: cAMP in hTGR5 CHO-k1 cells. In kind it is cell-based. Details: expressed in transfected cells; host or cells: CHO-k1. The note with it: for Emax: 0.5 h, read-out: hTGR5 CHO Efficacy; for EC50: cAMP.

Assay [4] concerns the target T4, mouse glutathione transferase-tagged FXR-LBD (Mus musculus, UniProt Q60641).
T4 construct: mouse glutathione transferase-tagged FXR-LBD (generated in-house); made in house
T4 sequence (Q60641 264-488 limits assumed): T2 sequence (Q96RI1 262-486 limits assumed) with H7D, F8Y, N46S, V50I, S95A, S98A, N107K, I125V, I174M, H175Y
Kind of assay: FXR AlphaScreen coactivator recruitment assay (mouse). The assay is classed as biochemical. The note with it: for EC50: read-out: (mFXR) EC50; for Emax: read-out: (mFXR) Efficacy. The protocol:
as §1

The target of assay [5] is T3, TGR5. In words: TGR5 activity: intracellular cAMP levels, NCI-H716 cells (HTR-FRET). In kind it is cell-based. Details: endogenous in cells; host or cells: NCI-H716. The note with it: for Emax: read-out: TGR5 (NCI-H716) Efficacy; for EC50: cAMP. How it is done: Activation of TGR5 was assessed by measuring the level of cAMP using an HTR-FRET assay. Thus, NCI-H716 cells were cultured on 96-well plates coated with Matrigel (Corning, USA) (0.75 mg/ml) in DMEM supplemented with 10% FCS, 100 units/ml penicillin, and 100 μg/ml streptomycin sulphate. […] The level of intracellular cAMP was determined with Lance kit. Z′ factor was used to validate assays.
(In general: Cyclic AMP is a second messenger, typically raised through Gs and lowered through Gi signalling.)

Where [6] appears, read: mTGR5 CHO cells, value in parentheses.
Where [7] appears, read: mouse FXR-LBD, value in parentheses.
Setting [8] is: 1 h, NCI-H716 cells, Ref. LCA 100% at 10 μM.
[9] abbreviates: hTGR5 CHO cells, Ref. LCA 100% at 10 μM.

In the case of `CC[C@H]1[C@@H](O)[C@@H]2[C@H](C[C@H](O)[C@]3(C)[C@@H]([C@H](C)C[C@@H](CF)C(=O)O)CC[C@@H]23)[C@@]2(C)CC[C@@H](O)C[C@@H]12` [Compound 6, 3α,7α,12α-Trihydroxy-6α-ethyl-23(A)-fluoromethyl-fluoromethyl-5β-cholan-24-oic acid], the Emax was 81% in assay [1] (CHO) and 28% in assay [3] (CHO). Also, the concentration for a half-maximal effect (EC50) is 3800 nM in assay [1] (setting [6]), above 100 µM in assay [2] and 29500 nM in assay [3] (hTGR5 CHO cells).

In the case of `CC[C@H]1[C@@H](O)[C@@H]2[C@H](CC[C@]3(C)[C@@H]([C@H](C)CCc4nc(=O)o[nH]4)[C@@H](O)C[C@@H]23)[C@@]2(C)CC[C@@H](O)C[C@@H]12` [Compound 18], the Emax is 101% in assay [1] (setting [6]); 132 ± 8% in assay [2]; 150% in assay [4] (setting [7]); 115 ± 4% in assay [5] (setting [8]); 104 ± 1% in assay [3] (setting [9]). The EC50 was found to be 370 nM in assay [1] (setting [6]); 0.55 ± 0.03 µM in assay [2]; 2.3 µM in assay [4] (setting [7]); 1.8 ± 0.2 µM in assay [5] (NCI-H716 cells); 110 ± 30 nM in assay [3] (hTGR5 CHO cells).

`CC[C@H]1[C@@H](O)C2C3CC[C@H]([C@H](C)CCc4nnc(NS(C)(=O)=O)o4)[C@@]3(C)CCC2[C@@]2(C)CC[C@@H](O)C[C@@H]12` (stereo partly drawn) [Compound 23, 2-(3α,7α-Dihydroxy-6α-ethyl-5β-cholan-24-nor-23-cholanyl)-5-methylsulfonamido-1,3,4-oxadiazole]: the Emax in assay [1] (CHO) stood at 110%; in assay [2] it was 175 ± 22%; in assay [4], 342%; in assay [5] (NCI-H716, 1 h), 75 ± 1%; in assay [3] (CHO) it was 111 ± 2%. Also, the EC50 in assay [1] (setting [6]) was 1400 nM; in assay [2], 0.1 ± 0.02 µM; in assay [4] (setting [7]), 0.33 µM; in assay [5] (NCI-H716 cells), 12.5 ± 1.5 µM; in assay [3] (hTGR5 CHO cells), 1300 ± 100 nM.

As for `CC[C@H]1[C@@H](O)[C@@H]2[C@H](C[C@H](O)[C@]3(C)[C@@H]([C@H](C)C[C@H](O)C(=O)O)CC[C@@H]23)[C@@]2(C)CC[C@@H](O)C[C@@H]12` [Compound 1, 3α,7α,12α,23(S)-tetrahydroxy-6α-ethyl-5β-cholan-24-oic acid], the Emax in assay [1] (setting [6]) was determined as 115%; in assay [2], 52%; in assay [4] (setting [7]), 9%; in assay [5] (setting [8]) it was 40%; in assay [3] (setting [9]), 103 ± 1%. In addition, the EC50 in assay [1] (setting [6]) is 700 nM; in assay [2], 32 ± 8 µM; in assay [4] (setting [7]), 146 µM; in assay [5] (NCI-H716 cells) it was 19 µM; in assay [3] (hTGR5 CHO cells) it was 3500 ± 1500 nM.

As for `CC[C@H]1[C@@H](O)C2C3CC[C@H]([C@H](C)CCc4noc(=O)[nH]4)[C@@]3(C)CCC2[C@@]2(C)CC[C@@H](O)C[C@@H]12` (stereo partly drawn) [Compound 16, 3α,7α-Dihydroxy-6α-ethyl-24-nor-5β-23([1,2,4]-oxadiazole-3-one-5-yl)-cholane], the Emax in assay [1] (setting [6]) turned out to be 99%; in assay [2] it was 165 ± 19%; in assay [4] (setting [7]), 204%; in assay [5] (setting [8]), 116 ± 9%; in assay [3] (setting [9]), 99 ± 4%. Also, the concentration for a half-maximal effect (EC50) stood at 440 nM in assay [1] (setting [6]); 0.15 ± 0.05 µM in assay [2]; 6.6 µM in assay [4] (setting [7]); 3 ± 0.3 µM in assay [5] (NCI-H716 cells); 1200 ± 100 nM in assay [3] (hTGR5 CHO cells).

On to `CC[C@H]1[C@@H](O)[C@@H]2[C@H](C[C@H](O)[C@]3(C)[C@@H]([C@H](C)C[C@@H](O)C(=O)O)CC[C@@H]23)[C@@]2(C)CC[C@@H](O)C[C@@H]12` [Compound 2, 3α,7α,12α,23(R)-tetrahydroxy-6α-ethyl-5β-cholan-24-oic acid], for which the Emax in assay [1] (setting [6]) was 93.5%; in assay [2], 200%; in assay [4] (setting [7]) it was 61%; in assay [5] (setting [8]), 55%; in assay [3] (setting [9]) it was 47.5 ± 2.5%. Further, the EC50 in assay [1] (setting [6]) was found to be 1500 nM; in assay [2], 20 ± 9 µM; in assay [4] (setting [7]) it was 84 µM; in assay [5] (NCI-H716 cells), 12 µM; in assay [3] (hTGR5 CHO cells) it was 17000 ± 2000 nM.

As to `CC[C@H]1[C@@H](O)C2C3CC[C@H]([C@H](C)C[C@H](CO)C(=O)O)[C@@]3(C)[C@@H](O)CC2[C@@]2(C)CC[C@@H](O)C[C@@H]12` (stereo partly drawn) [Compound 5, 3α,7α,12α-Trihydroxy-6α-ethyl-23(B)-hydroxymethyl-5β-cholan-24-oic acid], the values for the Emax in assay [1] (CHO), in assay [2] and in assay [3] (CHO) were 84.6%, 37% and 43.6%, respectively. Moreover, the concentration giving a half-maximal response (EC50) in assay [1] (setting [6]) was found to be 3400 nM; in assay [2], 20 µM; in assay [3] (hTGR5 CHO cells) it was 21000 nM.

For the molecule `CC[C@H]1[C@@H](O)C2C3CC[C@H]([C@H](C)CC(=O)NO)[C@@]3(C)CCC2[C@@]2(C)CC[C@@H](O)C[C@@H]12` (stereo partly drawn) [Compound 20], the Emax amounted to 101% in assay [1] (setting [6]); 122 ± 3% in assay [2]; 85% in assay [4] (setting [7]); 148 ± 1% in assay [5] (setting [8]); 109 ± 5% in assay [3] (setting [9]). For the same molecule, the EC50 in assay [1] (setting [6]) was found to be 500 nM; in assay [2], 8.7 ± 0.04 µM; in assay [4] (setting [7]) it was 16 µM; in assay [5] (NCI-H716 cells) it was 0.7 ± 0.1 µM; in assay [3] (hTGR5 CHO cells) it was 300 ± 140 nM.

`CC[C@H]1[C@@H](O)[C@@H]2[C@H](C[C@H](O)[C@]3(C)[C@@H]([C@H](C)C[C@H](CF)C(=O)O)CC[C@@H]23)[C@@]2(C)CC[C@@H](O)C[C@@H]12` [Compound 7, 3α,7α,12α-Trihydroxy-6α-ethyl-23(A)-fluoromethyl-fluoromethyl-5β-cholan-24-oic acid]: the figures for the Emax in assay [1] (setting [6]), in assay [2] and in assay [3] (setting [9]) were 119%, 83% and 27%, respectively. The EC50 was 2000 nM in assay [1] (setting [6]), 13 µM in assay [2] and 7900 nM in assay [3] (hTGR5 CHO cells).

For `CC[C@@H]1C2C[C@H](O)CC[C@]2(C)C2CC[C@@]3(C)C(CC[C@@H]3[C@H](C)Cc3nn[nH]n3)C2[C@@H]1O` (stereo partly drawn) [Compound 13], the Emax in assay [1] (setting [6]) was 90%; in assay [2], 138%; in assay [4] (setting [7]) it was 208%; in assay [5] (setting [8]), 84 ± 14%; in assay [3] (setting [9]), 102 ± 3%. Moreover, the EC50 in assay [1] (setting [6]) stood at 2300 nM; in assay [2] it was 0.43 µM; in assay [4] (setting [7]) it was 1.4 µM; in assay [5] (NCI-H716 cells), 6.4 ± 1.1 µM; in assay [3] (hTGR5 CHO cells), 1000 ± 100 nM.

The record behind these values is US10800807B2, “TGR5 modulators and methods of use thereof” (Intercept Pharmaceuticals, Inc., priority 2015, dated 2020).
